ChEMBL document CHEMBL5380809, “Discovery of Novel N-Hydroxy-1,2,4-oxadiazole-5-formamides as ASM Direct Inhibitors for the Treatment of Atherosclerosis” (J Med Chem, 2023)
Values belong to the compound of their own block, whether it stands above or below them. Activity calls are given as the source filed them. The calls are words filed in the database; no cut-off is given here.

Assays:
[1] = target: T1, Sphingomyelin phosphodiesterase (Homo sapiens, UniProt P17405); experiment: Inhibition of recombinant human aSMase (62 to 628 residues) using HMU-PC as substrate incubated for 2 hrs by fluorescence based assay
T1 sequence (P17405 whole entry): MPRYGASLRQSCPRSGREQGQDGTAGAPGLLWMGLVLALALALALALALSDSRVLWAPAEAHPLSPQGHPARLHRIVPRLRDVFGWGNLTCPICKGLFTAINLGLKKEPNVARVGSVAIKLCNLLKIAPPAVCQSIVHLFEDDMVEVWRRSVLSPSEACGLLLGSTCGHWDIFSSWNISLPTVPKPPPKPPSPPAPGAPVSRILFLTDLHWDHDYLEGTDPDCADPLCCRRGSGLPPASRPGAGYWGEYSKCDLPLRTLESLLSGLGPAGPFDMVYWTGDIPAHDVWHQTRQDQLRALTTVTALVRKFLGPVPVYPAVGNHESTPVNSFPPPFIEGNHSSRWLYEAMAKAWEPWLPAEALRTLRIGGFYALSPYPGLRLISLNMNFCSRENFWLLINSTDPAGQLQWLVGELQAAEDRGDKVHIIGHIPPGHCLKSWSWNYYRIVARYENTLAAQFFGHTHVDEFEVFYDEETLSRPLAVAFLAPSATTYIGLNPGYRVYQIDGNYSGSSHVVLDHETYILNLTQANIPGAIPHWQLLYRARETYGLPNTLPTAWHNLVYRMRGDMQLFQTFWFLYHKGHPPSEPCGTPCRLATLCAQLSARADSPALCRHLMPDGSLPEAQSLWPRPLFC

[2] = target: T2, Sphingomyelin phosphodiesterase (Homo sapiens) (UniProt P17405); experiment: Inhibition of recombinant human aSMase (62 to 628 residues) using HMU-PC as substrate at 50 uM incubated for 2 hrs by fluorescence based assay relative to control
T2 sequence (whole entry): T1 sequence (P17405 whole entry)

[3] = target: T2, Sphingomyelin phosphodiesterase (Homo sapiens); experiment: Inhibition of recombinant human aSMase (62 to 628 residues) using HMU-PC as substrate at 50 uM incubated for 2 hrs by fluorescence based assay
[4] = target: T2, Sphingomyelin phosphodiesterase (Homo sapiens); experiment: Inhibition of recombinant human aSMase (62 to 628 residues) using HMU-PC as substrate at 25 uM incubated for 2 hrs by fluorescence based assay relative to control
[5] = Inhibition of rat brain aSMase using HMU-PC as substrate incubated for 3 hrs by fluorescence based assay; assay type: tissue-based
[6] = Cytotoxicity against HUVEC cells assessed as cell growth inhibition incubated for 24 hrs by MTT assay; assay type: toxicity, cell-based; details: human
[7] = Cytotoxicity against HUVEC cells assessed as cell growth inhibition incubated for 48 hrs by MTT assay; assay type: toxicity, cell-based; details: human
[8] = test system: Mus musculus; experiment: Antiatherosclerotic activity in high-fat diet fed ApoE-/- mouse assessed as reduction in plasma total triacylglycerol level at 20 mg/kg measured after 8 weeks; assay type: functional, organism-based
[9] = test system: Mus musculus; experiment: Antiatherosclerotic activity in high-fat diet fed ApoE-/- mouse assessed as reduction in plasma Ox-LDL-C level at 20 mg/kg measured after 8 weeks; assay type: functional, organism-based
[10] = test system: Mus musculus; experiment: Antiatherosclerotic activity in high-fat diet fed ApoE-/- mouse assessed as reduction in plasma total cholesterol level at 20 mg/kg measured after 8 weeks; assay type: functional, organism-based
[11] = test system: Mus musculus; experiment: Antiatherosclerotic activity in high-fat diet fed ApoE-/- mouse assessed as reduction in plasma LDL-C level at 20 mg/kg measured after 8 weeks; assay type: functional, organism-based
[12] = test system: Mus musculus; experiment: Antiatherosclerotic activity in high-fat diet fed ApoE-/- mouse assessed as reduction in aortic arch lipid accumulation at 20 mg/kg measured after 8 weeks; assay type: functional, organism-based
[13] = test system: HUVEC; experiment: Cytotoxicity against HUVEC cells assessed as cell growth inhibition at 0.5 to 20 uM incubated for 24 to 48 hrs by MTT assay; assay type: toxicity, cell-based; details: human, dose lower 0.5 µM, time lower 24 hrs, dose upper 20 µM, time upper 48 hrs

Structure (SMILES): O=C(NO)c1nc(-c2ccc(COc3ccccc3)cc2)no1
IC50 [1]: 3.3 µM

Structure (SMILES): O=C(Cc1noc(-c2ccc(Br)cc2)n1)NO
inhibition [2]: < 50%
IC50 [1]: > 50 µM

Structure (SMILES): O=C(NO)c1noc(-c2ccc(Br)cc2)n1
IC50 [1]: 37.3 µM

Structure (SMILES): O=C(Cc1nc(-c2ccc(COc3ccc(Br)cc3)cc2)no1)NO
inhibition [3]: inactive

Structure (SMILES): COc1cc(-c2nnc(C(=O)NO)o2)ccc1OCc1ccccc1
inhibition [4]: 60%

Structure (SMILES): O=C(CCCOc1ccc(-c2cccnc2)cc1)NO
inhibition [3]: inactive

Structure (SMILES): O=C(Cc1noc(COc2ccc(-c3ccccc3)cc2)n1)NO
inhibition [2]: < 50%
IC50 [1]: > 50 µM

Structure (SMILES): COc1c(O)cc2oc3cc(O)c(CC=C(C)C)c(O)c3c(=O)c2c1CC=C(C)C [MANGOSTIN]
IC50 [5]: 14.1 µM

Structure (SMILES): CCCCOc1ccc(-c2nnc(C(=O)NO)o2)cc1
inhibition [4]: 13%
inhibition [3]: inactive

Structure (SMILES): CC(C)COc1ccc(-c2cc(C(=O)NO)no2)cc1
IC50 [1]: 6.73 µM

Structure (SMILES): COc1cc(-c2nnc(C(=O)NO)o2)ccc1OCC(C)C
inhibition [4]: 55%

Structure (SMILES): O=C(NO)c1nnc(-c2ccc(OCc3ccccc3)cc2)o1
inhibition [4]: 3%

Structure (SMILES): CCCCOc1ccc(-c2nnc(C(=O)NO)o2)cc1OC
inhibition [4]: 57%

Structure (SMILES): O=C(NO)c1nc(-c2ccc(COc3ccccc3Cl)cc2)no1
inhibition [3]: inactive

Structure (SMILES): O=C(Cc1nc(-c2ccc(COc3ccccc3)cc2)no1)NO
inhibition [3]: inactive

Structure (SMILES): CCC(C)(C)C(=O)O[C@H]1C[C@@H](C)C=C2C=C[C@H](C)[C@H](CC[C@@H]3C[C@@H](O)CC(=O)O3)[C@H]21
Activity [8]: Active
Activity [9]: inactive
Activity [10]: Active
Activity [11]: Active
Activity [12]: Active

Structure (SMILES): CC(C)COc1ccc(-c2nnc(C(=O)NO)o2)cc1
Activity [13]: Non-Toxic
IC50 [1]: 0.81 µM

Structure (SMILES): O=C(NO)c1cc(-c2ccc(OCc3ccccc3)cc2)on1
IC50 [1]: 7.9 µM

Structure (SMILES): O=C(NO)c1nc(-c2ccc(CNc3ccc(C(F)(F)F)cc3)cc2)no1
inhibition [3]: inactive

Structure (SMILES): CCCCOc1ccc(-c2cc(C(=O)NO)no2)cc1
IC50 [1]: 1 µM

The next lines start with results.

inhibition [2]: < 50%
IC50 [1]: > 50 µM
Structure (SMILES): O=C(Cc1noc(-c2ccc(-c3ccc(Cl)cc3)cc2)n1)NO

inhibition [3]: inactive
Structure (SMILES): O=C(CCCOc1ccc(-c2ccc(Cl)cc2)cc1)NO

IC50 [1]: 8.4 µM
Structure (SMILES): O=C(NO)c1nc(-c2ccc(COc3cccc(Cl)c3)cc2)no1

inhibition [3]: inactive
Structure (SMILES): O=C(NO)c1nc(-c2ccc(CNc3ccc(Cl)cc3)cc2)no1

inhibition [2]: < 50%
IC50 [1]: > 50 µM
Structure (SMILES): O=C(NO)c1cc(-c2ccc(-c3ccc(Cl)cc3)cc2)on1

IC50 [1]: 8.1 µM
Structure (SMILES): O=C(NO)c1nc(-c2ccc(COc3ccc(C(F)(F)F)cc3)cc2)no1
IC50 at 24 h [6]: 79.1 µM
IC50 at 48 h [7]: 84.3 µM

IC50 [1]: 0.51 µM
Structure (SMILES): O=C(NO)c1nnc(-c2ccc(-c3ccc(Cl)cc3)cc2)o1

IC50 [1]: 18.7 µM
Structure (SMILES): O=C(Cc1noc(COc2ccc(-c3ccc(Cl)cc3)cc2)n1)NO

IC50 [1]: 0.83 µM
Structure (SMILES): O=C(NO)c1nc(COc2ccc(-c3ccccc3)cc2)no1

IC50 [1]: 0.47 µM
Structure (SMILES): O=C(NO)c1nc(COc2ccc(-c3ccc(Cl)cc3)cc2)no1

IC50 [1]: 4.2 µM
Structure (SMILES): O=C(NO)c1nc(-c2ccc(COc3ccc(Cl)cc3)cc2)no1

IC50 [1]: 4.91 µM
Structure (SMILES): O=C(NO)c1noc(COc2ccc(-c3ccccc3)cc2)n1
